# The source made the active and inactive calls. The rule behind the calls is not given here.
# Experiments:
# [1] = Aqueous solubility of the compound at pH 6.6; type: physicochemical; conditions: aqueous solution
# [2] = target: T1, P-selectin glycoprotein ligand 1 (Homo sapiens) (UniProt Q14242); assay: Inhibition of recombinant PSGL-1 at 250 uM by surface plasmon resonance assay
# T1 sequence (whole entry): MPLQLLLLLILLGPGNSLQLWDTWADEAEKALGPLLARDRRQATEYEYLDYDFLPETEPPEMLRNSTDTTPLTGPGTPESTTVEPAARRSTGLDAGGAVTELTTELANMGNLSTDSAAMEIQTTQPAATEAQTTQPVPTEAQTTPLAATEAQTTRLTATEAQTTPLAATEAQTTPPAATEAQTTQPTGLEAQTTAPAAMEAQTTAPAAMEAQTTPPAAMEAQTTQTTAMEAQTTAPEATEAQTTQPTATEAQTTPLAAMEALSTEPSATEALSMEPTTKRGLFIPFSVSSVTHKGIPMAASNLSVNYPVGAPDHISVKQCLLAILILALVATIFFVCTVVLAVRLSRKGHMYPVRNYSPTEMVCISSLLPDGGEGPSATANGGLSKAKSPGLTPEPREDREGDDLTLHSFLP
# [3] = Clearance in Sprague-Dawley rat at 3 mg/kg, iv and 10 mg/kg, po; type: ADME, organism-based; conditions: in vivo
# [4] = system: Rattus norvegicus; assay: Dose normalized AUC in Sprague-Dawley rat measured per mg of plasma at 3 mg/kg, iv and 10 mg/kg, po; type: ADME, organism-based; conditions: in vivo
# [5] = Solubility of the compound in fed simulated intestinal bile salts-lecithin mixture fluid at pH 5.5; type: physicochemical
# [6] = Solubility of the compound in fasted simulated intestinal bile salts-lecithin mixture fluid at pH 6; type: physicochemical
# [7] = Physiological stability of the compound at pH 1 assessed as compound remaining after 12 hrs in presence of 20% acetonitrile; type: physicochemical; conditions: read-out: Stability
# [8] = Physiological stability of the compound at pH 1 assessed as compound remaining after 20 hrs in presence of 20% acetonitrile; type: physicochemical; conditions: read-out: Stability
# [9] = Physiological stability of the compound at pH 4.5 assessed as compound remaining after 4 hrs in presence of 20% acetonitrile; type: physicochemical; conditions: read-out: Stability
# [10] = Physiological stability of the compound at pH 4.5 assessed as compound remaining after 20 hrs in presence of 20% acetonitrile; type: physicochemical; conditions: read-out: Stability
# [11] = Physiological stability of the compound at pH 6.6 assessed as compound remaining after 4 hrs in presence of 20% acetonitrile; type: physicochemical; conditions: read-out: Stability
# [12] = Physiological stability of the compound at pH 6.6 assessed as compound remaining after 12 hrs in presence of 20% acetonitrile; type: physicochemical; conditions: read-out: Stability
# [13] = Physiological stability of the compound at pH 6.6 assessed as compound remaining after 16 hrs in presence of 20% acetonitrile; type: physicochemical; conditions: read-out: Stability
# [14] = Physiological stability of the compound at pH 6.6 assessed as compound remaining after 24 hrs in presence of 20% acetonitrile; type: physicochemical; conditions: read-out: Stability
# [15] = Physiological stability of the compound at pH 7.4 assessed as compound remaining after 4 hrs in presence of 20% acetonitrile; type: physicochemical; conditions: read-out: Stability
# [16] = Physiological stability of the compound at pH 7.4 assessed as compound remaining after 8 hrs in presence of 20% acetonitrile; type: physicochemical; conditions: read-out: Stability
# [17] = Physiological stability of the compound at pH 9 assessed as compound remaining after 16 hrs in presence of 20% acetonitrile; type: physicochemical; conditions: read-out: Stability
# [18] = Physiological stability of the compound in simulated intestinal fluid assessed as compound remaining after 4 hrs in presence of 20% acetonitrile; type: physicochemical; conditions: read-out: Stability
# [19] = Physiological stability of the compound in simulated intestinal fluid assessed as compound remaining after 24 hrs in presence of 20% acetonitrile; type: physicochemical; conditions: read-out: Stability
# [20] = Physiological stability of the compound in simulated intestinal bile salts-lecithin mixture fluid assessed as compound remaining after 12 hrs in presence of 20% acetonitrile; type: physicochemical; conditions: read-out: Stability
# [21] = Physiological stability of the compound in simulated intestinal bile salts-lecithin mixture fluid assessed as compound remaining after 20 hrs in presence of 20% acetonitrile; type: physicochemical; conditions: read-out: Stability
# [22] = Physiological stability of the compound in simulated intestinal bile salts-lecithin mixture fluid assessed as compound remaining after 24 hrs in presence of 20% acetonitrile; type: physicochemical; conditions: read-out: Stability
# [23] = Permeability from apical to basolateral side in human Caco-2 cells; type: ADME, cell-based
# [24] = Permeability from basolateral to apical side in human Caco-2 cells; type: ADME, cell-based
# [25] = Half life in Sprague-Dawley rat liver microsomes; type: ADME, Microsome
# [26] = Clearance in C57B6 mouse at 2 mg/kg, iv and 10 mg/kg, po; type: ADME, organism-based; conditions: in vivo
# [27] = Oral bioavailability in Beagle dog at 10 mg/kg; type: ADME, organism-based, Canis lupus familiaris; conditions: in vivo
# [28] = Clearance in Beagle dog at 2 mg/kg, iv and 10 mg/kg, po; type: ADME, organism-based, Canis lupus familiaris; conditions: in vivo
# [29] = system: Rattus norvegicus; assay: Inhibition of leukocytes rolling flux in acute intravital microscopy model of Sprague-Dawley rat cremasteric postcapillary venules at 7.5 mg/kg, po after 35 mins relative to control; type: functional
# [30] = system: Rattus norvegicus; assay: Inhibition of leukocytes rolling flux in acute intravital microscopy model of Sprague-Dawley rat cremasteric postcapillary venules at 15 mg/kg, po after 35 mins relative to control; type: functional
# [31] = system: Rattus norvegicus; assay: Inhibition of leukocytes rolling flux in acute intravital microscopy Sprague-Dawley rat model at 30 mg/kg, po after 35 mins relative to control; type: functional
# [32] = system: Plasma; assay: Drug level in Sprague-Dawley rat plasma at 15 mg/kg, po; type: ADME, organism-based; parameters: dose 15 mg/kg, route oral; conditions: in vivo
# [33] = system: Plasma; assay: Drug level in Sprague-Dawley rat plasma at 30 mg/kg, po; type: ADME, organism-based; parameters: dose 30 mg/kg, route oral; conditions: in vivo
# [34] = system: Rattus norvegicus; assay: Inhibition of Sprague-Dawley rat neointimal hyperplasia carotid balloon injury model at 30 mg/kg, po once daily for 13 days; type: functional; conditions: 312 h
# [35] = system: Papio anubis; assay: Antithrombotic activity in Baboon deep vein thrombosis model assessed as decrease in vein wall inflammation at 1 mg/kg, po; type: functional, organism-based; parameters: dose 1 mg/kg
# [36] = system: Papio anubis; assay: Toxicity in Baboon deep vein thrombosis model assessed as induction of coagulation at 1 mg/kg, po; type: organism-based; parameters: dose 1 mg/kg, route oral; conditions: in vivo
# [37] = target: Voltage-gated inwardly rectifying potassium channel KCNH2 (Homo sapiens, UniProt Q12809); assay: Inhibition of human ERG
# Sequence of Voltage-gated inwardly rectifying potassium channel KCNH2 (Q12809 whole entry): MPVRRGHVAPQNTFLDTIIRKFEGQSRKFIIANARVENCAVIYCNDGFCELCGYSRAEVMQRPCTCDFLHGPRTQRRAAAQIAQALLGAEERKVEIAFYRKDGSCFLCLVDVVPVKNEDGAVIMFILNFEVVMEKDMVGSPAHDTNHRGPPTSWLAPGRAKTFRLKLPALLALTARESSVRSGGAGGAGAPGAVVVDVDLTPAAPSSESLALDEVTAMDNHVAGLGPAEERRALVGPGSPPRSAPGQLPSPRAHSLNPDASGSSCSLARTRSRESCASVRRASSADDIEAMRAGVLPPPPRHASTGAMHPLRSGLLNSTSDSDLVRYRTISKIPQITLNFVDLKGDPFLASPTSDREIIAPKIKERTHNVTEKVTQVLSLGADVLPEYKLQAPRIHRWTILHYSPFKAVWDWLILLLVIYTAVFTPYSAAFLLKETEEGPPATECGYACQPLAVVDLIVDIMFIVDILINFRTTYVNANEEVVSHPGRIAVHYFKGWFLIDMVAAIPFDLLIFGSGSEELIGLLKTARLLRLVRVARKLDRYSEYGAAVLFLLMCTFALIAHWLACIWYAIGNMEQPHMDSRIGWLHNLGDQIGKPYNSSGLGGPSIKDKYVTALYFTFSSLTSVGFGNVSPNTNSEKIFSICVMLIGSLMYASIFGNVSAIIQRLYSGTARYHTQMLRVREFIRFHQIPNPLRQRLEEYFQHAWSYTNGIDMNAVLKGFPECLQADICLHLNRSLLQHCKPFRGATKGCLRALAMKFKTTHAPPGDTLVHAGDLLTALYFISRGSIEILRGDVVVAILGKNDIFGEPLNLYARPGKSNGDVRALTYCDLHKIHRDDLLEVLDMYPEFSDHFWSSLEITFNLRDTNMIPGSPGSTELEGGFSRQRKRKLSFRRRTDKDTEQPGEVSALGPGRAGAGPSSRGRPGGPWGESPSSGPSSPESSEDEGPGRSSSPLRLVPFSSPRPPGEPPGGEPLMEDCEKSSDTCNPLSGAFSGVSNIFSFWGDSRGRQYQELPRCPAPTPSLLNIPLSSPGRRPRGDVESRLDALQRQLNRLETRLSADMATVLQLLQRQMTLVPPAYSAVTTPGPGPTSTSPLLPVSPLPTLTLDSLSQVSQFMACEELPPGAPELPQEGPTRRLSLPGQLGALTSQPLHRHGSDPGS
compound,measurement,setting,value
O=C(O)c1c(O)c(C2(c3ccc(Cl)cc3)CC2)nc2c(C(F)(F)F)cccc12,solubility,[1],920 µg/mL
same,inhibition,[2],55%
same,clearance,[3],0.7 mL/min/kg
same,AUC,[4],21000 ng·h/mL
same,solubility,[5],835 µg/mL
same,solubility,[6],87 µg/mL
same,remaining at 12 h,[7],102%
same,remaining at 20 h,[8],102%
same,remaining at 4 h,[9],102%
same,remaining at 20 h,[10],100%
same,remaining at 4 h,[11],102%
same,remaining at 12 h,[12],106%
same,remaining at 16 h,[13],103%
same,remaining at 24 h,[14],104%
same,remaining at 4 h,[15],102%
same,remaining at 8 h,[16],102%
same,remaining at 16 h,[17],98.7%
same,remaining at 4 h,[18],101%
same,remaining at 24 h,[19],95%
same,remaining at 12 h,[20],101%
same,remaining at 20 h,[21],103%
same,remaining at 24 h,[22],103%
same,Papp A→B,[23],5.1 ×10⁻⁶ cm/s
same,Papp B→A,[24],9.8 ×10⁻⁶ cm/s
same,half-life,[25],> 1 h
same,clearance,[26],7 mL/min/kg
same,bioavailability,[27],100%
same,clearance,[28],0.9 mL/min/kg
same,inhibition in vivo at 7.5 mg/kg,[29],47%
same,inhibition in vivo at 15 mg/kg,[30],51%
same,inhibition in vivo at 30 mg/kg,[31],61%
same,Cp,[32],24000 ng/mL
same,Cp,[33],38000 ng/mL
same,inhibition in vivo at 30 mg/kg,[34],31%
same,Activity,[35],Active
same,Activity,[36],Non-toxic
same,inhibition (INH),[37],Not Active

# From ChEMBL document CHEMBL1212936, “Discovery of 2-[1-(4-chlorophenyl)cyclopropyl]-3-hydroxy-8-(trifluoromethyl)quinoline-4-carboxylic acid (PSI-421), a P-selectin inhibitor with improved pharmacokinetic properties and oral efficacy in models of vascular injury” (J Med Chem, 2010)
